From paper PMC6767204, “Synthesis and Biological Evaluation of Disubstituted Pyrimidines as Selective 5-HT2C Agonists” (Molecules, 2019)
Read-outs that look alike come from different tables or passages of the source.

Columns and labels:
[1] = biological target: T1, 5-HT5A receptor (Homo sapiens, UniProt P47898); experiment: 5-HT receptor radioligand binding affinity assay, 5A
T1 construct: expressed in transfected cells; host or cells: HEK293 or CHO
Method: (§1) Eleven dilutions (5 x assay concentration) of the test and reference compounds (Table S1) were prepared in standard binding buffer (50 mM tris(hydroxymethyl)-aminomethane–HCl (Tris-HCl), 10 mM MgCl2, 1 mM ethylenediaminetetraacetate (EDTA), pH 7.4) by serial dilution: 0.05 nM, 0.5 nM, 1.5 nM, 5 nM, 15 nM, 50 nM, 150 nM, 500 nM, 1.5 μM, 5 μM, and 50 μM. The radioligand (Table S1) was diluted to five times the assay concentration in standard binding buffer. Aliquots (50 μL) of the radioligand were dispensed into the wells of a 96-well plate containing 100 μL of standard binding buffer. Triplicate aliquots (50 μL) of the test and reference compound dilutions were then added. Finally, crude membrane fractions (50 μL) of cells (HEK293 or CHO) expressing human recombinant receptors were dispensed into each well. A total 250 μL of the reaction mixtures was incubated at room temperature and shielded from light for 1.5 h, then harvested by rapid filtration onto Whatman GF/B glass fiber filters presoaked with 0.3% polyethyleneimine, by using a 96-well Brandel harvester.
(§2) Four rapid washes were performed with chilled standard binding buffer (500 μL) to decrease nonspecific binding. Filters were placed in 6 mL scintillation tubes and allowed to dry overnight. The next day, 4 ml of EcoScint scintillation cocktail (National Diagnostics) was added to each tube. The tubes were capped, labeled, and counted by liquid scintillation counting. The filter mats were dried, and the scintillant was melted onto the filters, then the radioactivity retained on the filters was counted in a Microbeta scintillation counter. The IC50 values were obtained by using the Prism 4.0 program (GraphPad Software, San Diego, CA) and converted into Ki values. Each compound was tested in triplicate at least.
(§3) 3. Radioligands and reference compounds for binding assay
(§4) Table S1. A list of 5-HT receptor radioligands and reference compounds for binding assay. […]

[2] = test system: five human CYP450 isozymes; experiment: CYP inhibition, all tested isozymes; details: all the tested CYP isozymes
Method: CYP inhibition values against five human CYP450 isozymes were recorded as % remaining activity values of the given isozymes.
After incubation at 37 °C for 5 min, NADPH generation system solution was also added and incubated at 37 °C for 15 min again. To terminate the reaction, acetonitrile including internal standard (Terfenadine) was added, and the solution was centrifuged for 5 min (14,000 rpm, 4 °C).

[3] = biological target: T2, 5-HT2B receptor (Homo sapiens, UniProt P41595); experiment: 5-HT receptor radioligand binding affinity assay, 2B; details: for SI, selectivity index, 2B: subtype Ki divided by 5-HT2C Ki
T2 construct: expressed in transfected cells; host or cells: HEK293 or CHO
T2 sequence (P41595 whole entry): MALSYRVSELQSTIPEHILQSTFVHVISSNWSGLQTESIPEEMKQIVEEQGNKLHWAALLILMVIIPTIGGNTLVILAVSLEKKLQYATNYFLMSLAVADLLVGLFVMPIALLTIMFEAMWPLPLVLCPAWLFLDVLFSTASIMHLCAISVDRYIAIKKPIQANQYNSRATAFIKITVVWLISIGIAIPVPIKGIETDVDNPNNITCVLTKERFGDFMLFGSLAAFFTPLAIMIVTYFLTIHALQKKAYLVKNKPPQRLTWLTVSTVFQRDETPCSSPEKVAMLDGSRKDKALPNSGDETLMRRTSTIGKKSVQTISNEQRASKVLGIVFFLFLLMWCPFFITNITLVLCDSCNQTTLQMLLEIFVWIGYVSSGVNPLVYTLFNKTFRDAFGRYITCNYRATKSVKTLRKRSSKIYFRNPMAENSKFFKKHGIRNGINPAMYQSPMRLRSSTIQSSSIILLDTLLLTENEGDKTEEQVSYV
Method: as §1, §2, §3
(§5) Table S1. A list of 5-HT receptor radioligands and reference compounds for binding assay.
(§6) Receptor subtype Radioligand Reference compound
(§7) 1A [3H]8-OH-DPAT Methysergide
(§8) 2A [3H]Ketanserin Chlorpromazine
(§9) 2C [3H]Mesulergine Chlorpromazine

[4] = biological target: T3, 5-HT1D receptor (Homo sapiens, UniProt P28221); experiment: 5-HT receptor radioligand binding affinity assay, 1D; details: for SI, selectivity index, 1D: subtype Ki divided by 5-HT2C Ki
T3 construct: expressed in transfected cells; host or cells: HEK293 or CHO
T3 sequence (P28221 whole entry): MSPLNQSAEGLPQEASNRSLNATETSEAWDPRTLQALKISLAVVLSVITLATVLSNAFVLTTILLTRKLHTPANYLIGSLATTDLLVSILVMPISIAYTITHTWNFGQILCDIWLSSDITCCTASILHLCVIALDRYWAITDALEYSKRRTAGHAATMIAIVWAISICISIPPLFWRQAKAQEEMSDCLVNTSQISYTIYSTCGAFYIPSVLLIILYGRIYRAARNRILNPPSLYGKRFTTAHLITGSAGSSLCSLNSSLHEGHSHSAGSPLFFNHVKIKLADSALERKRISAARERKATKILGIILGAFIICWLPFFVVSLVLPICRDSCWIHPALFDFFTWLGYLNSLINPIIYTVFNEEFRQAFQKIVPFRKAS
Method: as §1, §2, §3, §5, §6, §7, §8, §9

[5] = biological target: T4, 5-HT1B receptor (Homo sapiens, UniProt P28222); experiment: 5-HT receptor radioligand binding affinity assay, 1B
T4 construct: expressed in transfected cells; host or cells: HEK293 or CHO
T4 sequence (P28222 whole entry): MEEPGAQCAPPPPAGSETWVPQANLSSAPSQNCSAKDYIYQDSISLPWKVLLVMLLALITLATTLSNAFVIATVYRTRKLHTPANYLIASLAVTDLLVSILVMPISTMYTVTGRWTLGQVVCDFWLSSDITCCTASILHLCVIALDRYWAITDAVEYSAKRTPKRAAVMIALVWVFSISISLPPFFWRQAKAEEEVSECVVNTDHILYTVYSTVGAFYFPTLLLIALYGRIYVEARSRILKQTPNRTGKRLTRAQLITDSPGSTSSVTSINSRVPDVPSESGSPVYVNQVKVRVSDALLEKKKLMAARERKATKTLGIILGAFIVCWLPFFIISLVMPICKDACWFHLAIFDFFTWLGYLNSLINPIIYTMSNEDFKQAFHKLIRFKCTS

[6] = biological target: T5, 5-HT2A receptor (Homo sapiens, UniProt P28223); experiment: 5-HT receptor radioligand binding affinity assay, 2A; details: for SI, selectivity index, 2A: subtype Ki divided by 5-HT2C Ki
T5 construct: expressed in transfected cells; host or cells: HEK293 or CHO
T5 sequence (P28223 whole entry): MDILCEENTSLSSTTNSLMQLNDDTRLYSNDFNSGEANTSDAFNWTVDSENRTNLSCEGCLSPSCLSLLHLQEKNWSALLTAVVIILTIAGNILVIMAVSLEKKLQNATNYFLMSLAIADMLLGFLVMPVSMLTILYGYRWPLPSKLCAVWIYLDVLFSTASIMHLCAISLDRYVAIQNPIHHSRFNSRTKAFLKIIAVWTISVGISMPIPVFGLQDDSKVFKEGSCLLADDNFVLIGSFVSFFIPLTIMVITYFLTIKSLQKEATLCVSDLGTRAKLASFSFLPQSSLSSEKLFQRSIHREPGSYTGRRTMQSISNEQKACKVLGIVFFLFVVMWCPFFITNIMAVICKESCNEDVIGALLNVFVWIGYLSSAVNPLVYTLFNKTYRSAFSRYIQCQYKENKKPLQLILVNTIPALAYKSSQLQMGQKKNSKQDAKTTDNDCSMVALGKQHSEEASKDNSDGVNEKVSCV
Method: as §1, §2, §3, §5, §6, §7, §8, §9

[7] = biological target: T6, 5-HT3 receptor (Homo sapiens, UniProt P46098); experiment: 5-HT receptor radioligand binding affinity assay, 3; details: for SI, selectivity index, 3: subtype Ki divided by 5-HT2C Ki
T6 construct: expressed in transfected cells; host or cells: HEK293 or CHO
T6 sequence (P46098 24-478): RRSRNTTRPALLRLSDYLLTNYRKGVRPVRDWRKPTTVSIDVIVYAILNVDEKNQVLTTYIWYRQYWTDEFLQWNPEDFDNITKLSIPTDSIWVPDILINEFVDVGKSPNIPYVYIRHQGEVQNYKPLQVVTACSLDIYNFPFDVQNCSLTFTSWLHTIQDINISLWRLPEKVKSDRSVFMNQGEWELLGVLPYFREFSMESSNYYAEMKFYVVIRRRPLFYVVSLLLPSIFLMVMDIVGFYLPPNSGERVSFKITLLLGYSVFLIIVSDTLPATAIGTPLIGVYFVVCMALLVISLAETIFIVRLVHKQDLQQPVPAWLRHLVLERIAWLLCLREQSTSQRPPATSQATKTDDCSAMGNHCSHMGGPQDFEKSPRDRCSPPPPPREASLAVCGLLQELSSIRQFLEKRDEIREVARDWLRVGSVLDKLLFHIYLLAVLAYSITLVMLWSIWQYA
Method: as §1, §2, §3, §5, §6, §7, §8, §9

[8] = biological target: T7, 5-HT7 receptor (Homo sapiens, UniProt P34969); experiment: 5-HT receptor radioligand binding affinity assay, 7; details: for SI, selectivity index, 7: subtype Ki divided by 5-HT2C Ki
T7 construct: expressed in transfected cells; host or cells: HEK293 or CHO
T7 sequence (P34969 whole entry): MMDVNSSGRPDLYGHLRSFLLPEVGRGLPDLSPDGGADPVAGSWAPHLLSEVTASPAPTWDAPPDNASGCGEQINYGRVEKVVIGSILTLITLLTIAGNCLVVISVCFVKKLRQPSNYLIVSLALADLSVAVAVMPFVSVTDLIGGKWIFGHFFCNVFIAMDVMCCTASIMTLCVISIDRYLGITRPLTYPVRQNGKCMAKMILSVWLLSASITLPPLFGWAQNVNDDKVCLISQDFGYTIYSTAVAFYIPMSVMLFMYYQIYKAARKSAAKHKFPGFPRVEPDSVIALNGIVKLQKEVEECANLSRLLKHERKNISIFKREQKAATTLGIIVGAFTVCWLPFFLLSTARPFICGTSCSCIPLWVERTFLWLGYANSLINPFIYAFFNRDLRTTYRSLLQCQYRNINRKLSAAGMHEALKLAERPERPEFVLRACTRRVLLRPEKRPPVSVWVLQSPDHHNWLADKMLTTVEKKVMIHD
Method: as §1, §2, §3, §5, §6, §7, §8, §9

[9] = biological target: T8, 5-HT1A receptor (Homo sapiens, UniProt P08908); experiment: 5-HT receptor radioligand binding affinity assay, 1A; details: for SI, selectivity index, 1A: subtype Ki divided by 5-HT2C Ki
T8 construct: expressed in transfected cells; host or cells: HEK293 or CHO
T8 sequence (P08908 1-422): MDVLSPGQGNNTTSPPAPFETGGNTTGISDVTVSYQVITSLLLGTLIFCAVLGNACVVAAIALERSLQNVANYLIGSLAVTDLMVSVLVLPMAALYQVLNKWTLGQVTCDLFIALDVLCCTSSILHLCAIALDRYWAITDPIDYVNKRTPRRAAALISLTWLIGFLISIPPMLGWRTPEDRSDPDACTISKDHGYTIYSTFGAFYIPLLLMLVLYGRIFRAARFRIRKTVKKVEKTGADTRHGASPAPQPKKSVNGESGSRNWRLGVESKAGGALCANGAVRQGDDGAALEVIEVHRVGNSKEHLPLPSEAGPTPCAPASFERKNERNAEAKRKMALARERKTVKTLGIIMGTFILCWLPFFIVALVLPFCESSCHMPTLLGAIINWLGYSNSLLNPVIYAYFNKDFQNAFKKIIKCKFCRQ
Method: as §1, §2, §3, §5, §6, §7, §8, §9

[10] = biological target: T9, 5-HT2C receptor (Homo sapiens, UniProt P28335); experiment: 5-HT2C receptor cell-based functional assay (agonist mode, fluorescence-based); details: Table 2; serotonin as reference compound
T9 sequence (P28335 33-458): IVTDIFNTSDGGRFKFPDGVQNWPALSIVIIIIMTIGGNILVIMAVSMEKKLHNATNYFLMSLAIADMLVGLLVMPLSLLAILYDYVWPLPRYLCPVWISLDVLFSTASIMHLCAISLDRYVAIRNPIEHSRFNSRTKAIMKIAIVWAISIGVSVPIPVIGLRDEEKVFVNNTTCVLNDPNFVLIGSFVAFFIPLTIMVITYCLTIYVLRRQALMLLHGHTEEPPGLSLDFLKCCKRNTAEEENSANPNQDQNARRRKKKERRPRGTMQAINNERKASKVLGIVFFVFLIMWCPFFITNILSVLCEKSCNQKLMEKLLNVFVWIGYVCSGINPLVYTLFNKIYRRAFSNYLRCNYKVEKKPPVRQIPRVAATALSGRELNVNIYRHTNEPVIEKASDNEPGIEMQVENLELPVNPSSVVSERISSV
Method: The synthesized compounds were tested in agonist mode with the 5-HT2C receptor assay using recombinant human HEK-293 cells serviced by either Eurofins Cerep or DGMIF (Daegu-Gyeongbuk Medical Innovation Foundation). All the experiments were duplicated.

[11] = biological target: T10, 5-HT1E receptor (Homo sapiens, UniProt P28566); experiment: 5-HT receptor radioligand binding affinity assay, 1E
T10 construct: expressed in transfected cells; host or cells: HEK293 or CHO
T10 sequence (P28566 whole entry): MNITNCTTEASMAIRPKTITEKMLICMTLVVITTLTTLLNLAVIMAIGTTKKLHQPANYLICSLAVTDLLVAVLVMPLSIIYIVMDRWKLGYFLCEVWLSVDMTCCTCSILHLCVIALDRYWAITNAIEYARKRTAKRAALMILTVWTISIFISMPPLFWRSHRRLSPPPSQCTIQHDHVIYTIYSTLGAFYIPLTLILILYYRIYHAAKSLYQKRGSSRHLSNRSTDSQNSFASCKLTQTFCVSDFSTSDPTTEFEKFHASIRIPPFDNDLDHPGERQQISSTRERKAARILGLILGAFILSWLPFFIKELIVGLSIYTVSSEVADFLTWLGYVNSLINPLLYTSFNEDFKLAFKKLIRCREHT
Method: as §1, §2, §3, §4

[12] = biological target: T9, 5-HT2C receptor; experiment: 5-HT receptor radioligand binding affinity assay, 2C; parameters: expressed in transfected cells; details: for %Binding at 10 μM, 2C: Table 3; for %binding / Ki: Table 2; for SI, selectivity index, 2C: subtype Ki divided by 5-HT2C Ki
Method: as §1, §2, §3, §5, §6, §7, §8, §9

[13] = Microsomal stability; type: in vitro ADME; details: pH 7.4, human liver microsomes, read-out: HLM %Remaining @ 1 μM after 0.5 h
Method: To human liver microsomes (0.5 mg/mL) were added 0.1 M phosphate buffer (pH 7.4) and tested compounds (1 μM).

[14] = biological target: T11, 5-HT6 receptor (Homo sapiens, UniProt P50406); experiment: 5-HT receptor radioligand binding affinity assay, 6; details: for SI, selectivity index, 6: subtype Ki divided by 5-HT2C Ki
T11 construct: expressed in transfected cells; host or cells: HEK293 or CHO
T11 sequence (P50406 whole entry): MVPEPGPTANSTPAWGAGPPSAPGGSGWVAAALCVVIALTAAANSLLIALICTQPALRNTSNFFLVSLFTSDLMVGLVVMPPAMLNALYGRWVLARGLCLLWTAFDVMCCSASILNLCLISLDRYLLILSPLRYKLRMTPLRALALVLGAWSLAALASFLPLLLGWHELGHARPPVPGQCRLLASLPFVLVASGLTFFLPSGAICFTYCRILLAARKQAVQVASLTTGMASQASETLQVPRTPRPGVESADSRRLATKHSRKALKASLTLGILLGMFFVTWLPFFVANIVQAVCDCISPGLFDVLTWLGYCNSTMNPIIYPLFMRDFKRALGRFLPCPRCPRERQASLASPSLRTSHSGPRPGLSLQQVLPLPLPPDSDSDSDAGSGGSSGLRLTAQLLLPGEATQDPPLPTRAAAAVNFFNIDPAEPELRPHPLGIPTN
Method: as §1, §2, §3, §5, §6, §7, §8, §9

[15] = Plasma stability; type: in vitro ADME; details: human plasma, 37 °C
[16] = biological target: T5, 5-HT2A receptor; parameters: method as in PMID 28846591; details: Figure 2; cited from earlier work

T1 sequence (P47898 whole entry): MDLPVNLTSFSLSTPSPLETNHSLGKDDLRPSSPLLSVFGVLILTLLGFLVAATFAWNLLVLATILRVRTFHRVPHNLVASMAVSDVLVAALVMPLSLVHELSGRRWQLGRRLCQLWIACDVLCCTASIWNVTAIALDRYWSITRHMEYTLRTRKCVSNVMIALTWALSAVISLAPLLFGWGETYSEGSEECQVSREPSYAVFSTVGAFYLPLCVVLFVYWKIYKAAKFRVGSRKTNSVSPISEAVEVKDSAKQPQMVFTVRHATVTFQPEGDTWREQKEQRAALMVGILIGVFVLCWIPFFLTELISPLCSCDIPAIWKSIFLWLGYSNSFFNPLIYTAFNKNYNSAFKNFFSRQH

SMILES | %Binding at 10 μM, 5A [1] | Ki [3] | %Binding at 10 μM, 2B [3] | SI, selectivity index, 2B [3] | Ki [4] | %Binding at 10 μM, 1D [4] | SI, selectivity index, 1D [4] | %Binding at 10 μM, 1B [5] | Ki [6] | %Binding at 10 μM, 2A [6] | SI, selectivity index, 2A [6] | Ki [7] | %Binding at 10 μM, 3 [7] | SI, selectivity index, 3 [7] | Ki [8] | %Binding at 10 μM, 7 [8] | SI, selectivity index, 7 [8] | Ki [9] | %Binding at 10 μM, 1A [9] | SI, selectivity index, 1A [9] | other results
C[C@@H](Oc1nc(N2CCCNCC2)ncc1F)c1cccc(F)c1 [10a, (R)-1-(5-fluoro-4-(1-(3-fluorophenyl)ethoxy)pyrimidin-2-yl)-1,4-diazepane] | 22.5 /ND % | 83 nM | 98.0% | 10.5 | 679 nM | 71.4% | 85.9 | 56.1% | 1280 nM | 75.5% | 162.5 | 323 nM | 89.0% | 40.9 | 1020 nM | 61.3% | 128.6 | 578 nM | 74.1% | 73.2 | %remaining activity of isozymes [2]: > 60%; Ki [5]: 3240 nM; SI, selectivity index, 1B ([5]; subtype Ki divided by 5-HT2C Ki): 409.7; %activation [10]: 81.0%; %Binding at 10 μM, 1E [11]: 43.1 /ND^b %; %Binding at 10 μM, 2C [12]: 81.3%; selectivity for other 5-HT receptor subtypes, difference in potency ([12]; 5-HT2C versus other 5-HT receptor subtypes): greater than 10 fold; %binding [12]: 81.3%; Ki [12]: 7.9 nM; SI, selectivity index, 2C [12]: 1.0; remaining at 0.5 h, 1 μM [13]: 96.6%; Ki [14]: 348 nM; %Binding at 10 μM, 6 [14]: 50.7%; SI, selectivity index, 6 [14]: 44.1; remaining at 0.5 h, 10 μM ([15]; 0.5 h, read-out: Plasma Stability %Remaining @ 10 μM after 0.5 h): 99.9%; remaining at 2 h, 10 μM ([15]; 2 h, read-out: Plasma Stability %Remaining @ 10 μM after 2 h): 98%
C[C@@H](Oc1nc(N2CCCNCC2)ncc1F)c1ccc(F)cc1 [10f, (R)-1-(5-fluoro-4-(1-(4-fluorophenyl)ethoxy)pyrimidin-2-yl)-1,4-diazepane] | 15.2 /ND % | 118 nM | 95.0% | 6.2 | 937 nM | 81.3% | 49.3 | 19.2 /ND^b % | 2860 nM | 52.9% | 150.7 | 415 nM | 88.0% | 21.8 | 616 nM | 55.4% | 32.4 | 1070 nM | 67.6% | 56.1 | %activation [10]: 52.4%; %Binding at 10 μM, 1E [11]: 31.3 /ND^b %; %binding [12]: 93.9%; Ki [12]: 19 nM; SI, selectivity index, 2C [12]: 1.0; Ki [14]: 467 nM; %Binding at 10 μM, 6 [14]: 56.5%; SI, selectivity index, 6 [14]: 24.6
C[C@@H]1CNCCN1c1ncc(F)c(O[C@H](C)c2ccc(F)cc2)n1 [compound 8, reference compound] | 18.5 /ND^b % | 38 nM | 98.1% | 6.4 | 1050 nM | 83.4% | 178.3 | 4.9 /ND^b % | 511 nM | 85.3% | 86.6 | 543 nM | 83.4% | 92.0 | 528 nM | 63.4% | 89.5 | 271 nM | 89.1% | 45.9 | %Binding at 10 μM, 1E [11]: 48.0 /ND^b %; %Binding at 10 μM, 2C [12]: 89.0%; %binding [12]: 89.0%; Ki [12]: 5.9 nM; SI, selectivity index, 2C [12]: 1.0; Ki [14]: 30 nM; %Binding at 10 μM, 6 [14]: 56.7%; SI, selectivity index, 6 [14]: 5.1; Ki [16]: 1280 nM
